In patent US20190105260A1, “COMPOSITIONS AND METHODS TO PROMOTE WOUND HEALING” (The Regents of the University of California, priority 2016, published 2019):

Columns and labels:
[1] = tested on: bone marrow-derived macrophages (BMDMs), M2 polarization; test: In vitro macrophage polarization (RT-PCR, flow cytometry); assay type: cell-based, mouse; settings: for effect on fluoxetine-enhanced M2 polarization (CD206+ cells, flow cytometry): added to fluoxetine, 1 μM Ketanserin, 100 nM NAN-190, 24 hours
Description: Bone marrow described macrophages from wild-type C57/B6J mice were harvested and cultured under polarizing conditions towards M0 (no polarization; normal culture medium), M1 (using LPS and IFNγ) or M2 (using IL-4 and IL-13). […] M2 activation status was assessed using RT-PCR (normalized to HSP90) for CD206, Ym-1 and Arg-1. M1 activation status was assessed using TNFα (A, B). C: At day 7 of macrophage maturation, adherent bone marrow derived monocytes in culture were identified with macrophage markers (CD11b and F4/80) using flow cytometry. After 24 hours, CD206 expression was identified in treated group (C). Results were then quantified and reported (D). Data presented as average±SEM. ** p<0.01.
Wild type C57BL/6 male and female mice were used. Bone marrow-derived (BMD) cells were isolated from mouse femurs and tibias. ACK solution (Thermo Fisher catalog 50-983-220) was used for 5 minutes at 37° C. to lyse red blood cells. BMD macrophages (BMDMs) were matured with (20 ng/mL) M-CSF (R&D) for 7 days. On day 7, BMDM phenotype was confirmed with flow cytometry by CD11b and F4/80 markers (Biolegend). Following maturation, BMDMs were either polarized towards M1 lineage with 10 ng/ml LPS (Sigma Aldrich) and 100 ng/ml IFN-g (R&D) or M2 lineage with 20 ng/ml IL-4 (PeproTech) and IL-13 (R&D) in cRPMI (1×RPMI (Cellgro), 10% FBS, 1× sodium pyruvate (GIBCO), 1× penicillin/streptomycin (GIBCO) at 37° C. for 24 hours. Non-polarized BMDMs and M1-polarized BMDMs were used as experimental controls for polarization procedure. M2-polarized BMDMs were co-treated with either PBS or FLX and/or 100 nM NAN-190 or 1 μM Ketanserin. Cells were either collected after 4 hours by scraping and stored in buffer RLT (Qiagen) at −80° C. or were read with flow cytometry after 24 hours and data were appropriately compensated and analyzed by FlowJo.
RT-PCR was performed using PowerUp SYBR Green Master Mix (Thermo/Applied Biosystems). Data was analyzed using the ΔΔCt method and normalized using geometric mean of the housekeeping genes (GAPDH, Hsp90, 18S rRNA). Fold change is shown relative to control groups.

[2] = cited from earlier work
[3] = tested on: Db/Db female mice, diabetic model of impaired wound healing; test: In vivo splinted full-thickness excisional wound model, re-epithelialization analysis; set-up: species or system mouse; settings: for re-epithelialization compared to PEG vehicle control: daily topical 0.2% fluoxetine or 0.01% timolol, day 12; for re-epithelialization vs vehicle control: daily topical 0.2% fluoxetine or 2% serotonin in 5% polyethylene glycol, day 10
Description: Panel B: Histomorphometric analysis of wounds. Representative histology sections for each group were chosen. Following euthanasia of animals, wounds were excised, biopsied and bisected. Wound tissue was fixed in paraformaldehyde for 12-16 hours and then paraffin embedded. Serial 5 μm sections were obtained from the center of the wound and the section with the largest wound bed (as defined by distance between hair follicles) was stained with hemotoxylin and eosin. Images were taken using 10× objective on a Keyance microscope. Panels C-D: Re-epithelialization was determined on sections created as in panel B. Image J analysis software was utilized to divide the re-epithelialized tissue (distance from hair follicle to remaining wound) by the entire original wound surface (as defined as distance between hair follicles). Panel D provides the distribution of data depicted in Panel C. P values were derived using a 2-tailed t-test.
13 week-old Db/Db female mice underwent full-thickness excisional biopsies with 8 mm punch biopsies. Wounds were splinted to prevent contraction. At day 12, animals were sacrificed and wounds were harvested to assess re-epithelialization. Representative histology sections for each group were chosen. Following euthanasia of animals, wounds were excised, biopsied and bisected. Wound tissue was fixed in paraformaldehyde for 12-16 hours and then paraffin embedded. Serial […] sections were obtained from the center of the wound and the section with the largest wound bed (as defined by distance between subcutaneous fat tissue) was stained with hemotoxylin and eosin. Images were taken using 10× objective on a Keyance microscope. (A) Re-epithelialization was determined on sections created. Image J analysis software was utilized to divide the re-epithelialized tissue by the entire original wound surface. (B) Percent of wounds at different stages of re-epithelialization was quantified. Data represented as Mean±SEM. P values were derived using a 2-tailed t-test. N=5/group.
13 week-old Db/Db female mice underwent full-thickness excisional wounding with 8 mm punch biopsy tool. All wounds were splinted to prevent contraction. […] At day 11, animals were sacrificed and wounds were harvested to assess re-epithelialization. Representative histology sections for each group were chosen. Following euthanasia of animals, wounds were excised, biopsied and bisected. Wound tissue was fixed in paraformaldehyde for 12-16 hours and then paraffin embedded. Serial […] sections were obtained from the center of the wound and the section with the largest wound bed (as defined by distance between subcutaneous fat tissue) was stained with hemotoxylin and eosin. Images were taken using 10× objective on a Keyance microscope. Re-epithelialization was determined on sections created. Image J analysis software was utilized to divide the re-epithelialized tissue by the entire original wound surface. Data represented as Mean±SEM. N=5/group.
Diabetic status (blood glucose >300 mg/dl) was confirmed in female Db/Db mice at age 11 weeks. At age 13 weeks, mice underwent hair removal and synchronization of follicle cycling through depilation and shaving. Synchronization was confirmed based on lack of skin pigmentation in included mice. 1 day after synchronization, 13-week-old Db/Db female mice underwent full-thickness excisional wounding using a splinted model as described. Briefly, 8 mm punch biopsies were used to make full-thickness excisional wounds. […]

[4] = tested on: wound beds of Db/Db female mice; test: Immunohistochemistry of wound beds (Gr-1, F4/80, CD31); assay type: in vivo, mouse; settings: topical treatment, day 10
Description: 13 week-old Db/Db female mice underwent full-thickness excisional biopsies with 8 mm punch biopsies. Wounds were splinted to prevent contraction. At day 10, animals were sacrificed and wounds were harvested to assess re-epithelialization. Representative histology sections for each group were chosen. Following euthanasia of animals, wounds were excised, biopsied and bisected. Wound tissue was fixed in paraformaldehyde for 12-16 hours and then paraffin embedded. Serial […] sections were obtained from the center of the wound and the section with the largest wound bed (as defined by distance between subcutaneous fat tissue—indicated by yellow arrows in figure). Images were taken using 10× objective on a Keyance microscope. Sections were stained with antibody to Gr-1 (A), CD31 (B) or F4/80 (C) to assess neutrophil, endothelial cell or macrophage numbers, respectively, in the wound beds. Wound bed area was outlined in Spectrum software (demarcated by yellow arrows in this figure), which then calculated the number of positive cells. Data is presented as positive cells/mm^2. P values were derived using a 1-tailed t-test. *, p<0.05; **, p<0.01. N=5/group.
Following euthanasia, wound tissue was harvested and processed as described above. Antibodies: F4/80 (Serotec, now BioRad MCA497A488, clone CI:A3-1, 1:100 dilution); GR-1 (Biolegend, catalog number 108402, clone RB6-8C5, 1:200 dilution); CD31 (Santa Cruz, catalog number sc1506, clone M20, 1:1800 dilution). Wound beds were analyzed in Spectrum software (UC Davis). Wound beds were outlined based on subcutaneous fat presence and positive cells were calculated as #/mm^2 of wound bed.

[5] = tested on: Neonatal Human Keratinocytes (NHKs); test: Scratch wound assay; assay type: cell-based
Description: (§1) FIGS. 2A-C illustrate that serotonin (5-HT) increases keratinocyte migratory speed and re-epithelialization in a scratch wound ex vivo model, likely through the ERK-STAT3-NFkB pathway.
Neonatal Human Keratinocytes (NHKs) were either non-treated (Control) or treated with 5-HT (1 μM) and FLX (0.01 μM, 0.1 μM, 1 μM) and/or 5HTR1A blocker (100 nM NAN190) and/or 5HTR2A antagonist (1 μM Ketanserin or KET). NHKs from at least 3 different donors were plated at fully confluent density and treated with Mitomycin to prevent proliferation. P-200 tips were used to induce a scratch wound in the middle of each well and time-lapse images were recorded every 30 minutes for 6 hours and % healed were calculated as previously described. Data represented as Mean±SEM. Student t-tests were used for statistical analysis. *, p<0.05; **, p<0.01; ***, p<0.001.
NHKs were isolated and cultured from human foreskin as previously reported. […]
NHKs from 3 different donors were plated on collagen-coated 12-well plates at fully confluent density and treated with Mitomycin C to prevent proliferation. P-200 tips were used to induce a scratch wound in the middle of each well and time-lapse images were recorded every 30 minutes for 6 hours and % healed were calculated as following: % Healed=([(SA)]_(t=0)−[(SA)]_(t=6))/[(SA)]_(t=0) which SA represents surface area of the scratch wound gap at 0-hour (t=0) or 6-hour time point. […]

[6] = tested on: CFSE-labeled CD4+CD25- effector T cells stimulated with CD11c+ dendritic cells; test: Mixed lymphocyte reaction; assay type: cell-based, mouse; settings: 1 μM fluoxetine, 10 μM serotonin, 3,000 AMSC or 1,500 BMSC added to co-cultures
Description: Panel A: In a mixed lymphocyte reaction, 250,000 Carboxyfluorescein succinimidyl ester (CFSE)-labeled CD4+CD25-effector T cells were cultured with 100,000 CD11c+ dendritic cells as antigen. […] Proliferation was measured based on CFSE dilution. […] P values were derived using a 2-tailed t-test.
Mixed lymphocyte reactions were performed as described. Briefly, allogenic effector B6 CF SE-labeled T cells were incubated in a 96-well plate (250,000/well) with CD11c+ Bal/b APC (100,000/well) that were purified from bulk splenocytes on anti-CD11c-coupled Milteny microbeads. […] Proliferation was measured based on CFSE dilution.

BMSC [7] = test: BMSC proliferation in vitro; assay type: cell-based; settings: 10 uM 5HT vs untreated BMSC; BMSC pooled from 3 donors
NF-kB in keratinocytes = test: Multiplex assay, NF-kB; assay type: cell-based, human; settings: 10 μM 5-HT for 6 hours, NHKs
Description: as §1
(§2) NHKs from 3 different donors were cultured in 100 mm dishes until 80% confluent and treated with 10 μM 5-HT for 6 hours. Protein lysates were collected and quantified with Bradford assays before proceeding according to manufacturer's protocol (Millipore Multiplex Assay (MILLIPLEX® MAP 48-680MAG). Results were normalized to total protein levels quantified separately by Bradford protein assays.

[8] = tested on: phosphorylated ERK in keratinocytes; test: Multiplex assay, phosphorylated ERK; assay type: cell-based, human; settings: 10 μM 5-HT for 6 hours, NHKs
Description: as §1, §2

[9] = tested on: phosphorylated STAT3 in keratinocytes; test: Multiplex assay, phosphorylated STAT3; assay type: cell-based, human; settings: 10 μM 5-HT for 6 hours, NHKs
Description: as §1, §2

[10] = Serotonin degradation in culture (ELISA); assay type: physicochemical; settings: after 24 hours in culture, in both the presence and absence of BMSC
From the text: Serotonin is rapidly degraded when exposed to in vitro in culture conditions.

[11] = tested on: HaCaT human keratinocyte cell line; test: Single cell migration assay; assay type: cell-based; settings: HaCaT cells
From the text: as §1

BMSC [12] = test: BMSC migration assay; assay type: cell-based; settings: 10 uM 5HT vs untreated BMSC; BMSC pooled from 3 donors
[13] = 100 nM fluoxetine, after 4 hours of polarization

O=C(c1ccc(F)cc1)C1CCN(CCn2c(=O)[nH]c3ccccc3c2=O)CC1 [Ketanserin]
effect on fluoxetine-enhanced M2 polarization (CD206+ cells, flow cytometry) [1]: reversed

COc1ccccc1N1CCN(CCCCN2C(=O)c3ccccc3C2=O)CC1 [NAN190]
effect on fluoxetine-enhanced M2 polarization (CD206+ cells, flow cytometry) [1]: reversed

CC(C)(C)NCC(O)COc1cccc2c1CC(O)C(O)C2 (centres unmarked) [Nadolol]
lipid solubility [2]: low

CNCCC(Oc1ccc(C(F)(F)F)cc1)c1ccccc1 (centres unmarked) [fluoxetine]
Arg-1 transcripts (RT-PCR) [1, 13]: significant increased | CD206 transcripts (RT-PCR) [1, 13]: significant increased | Ym-1 transcripts (RT-PCR) [1, 13]: significant increased | M2 polarization of naïve macrophages (CD206+ cells, flow cytometry) ([1]; after 24 hours of M2 polarization): enhanced | re-epithelialization compared to PEG vehicle control [3]: increased | re-epithelialization vs vehicle control [3]: significantly improved | increase in re-epithelialization compared to INTEGRA alone ([3]; day 11, all wounds with INTEGRA matrix, 1 μM fluoxetine daily, 250,000 MSC): 17% | angiogenesis (CD31+ endothelial cells) in wound beds vs vehicle [4]: significantly increased | macrophage (F4/80+ cells) numbers in wound beds vs vehicle [4]: significantly increased | neutrophils (Gr-1+ cells) in wound beds vs vehicle [4]: significantly fewer | migratory speed of human keratinocytes ([5]; fluoxetine (0.01-1 μM) in the presence of serotonin (1 μM), 6 hours): significantly increased | T cell proliferation (CFSE dilution) [6]: significantly inhibit

NCCc1c[nH]c2ccc(O)cc12 [serotonin]
BMSC proliferation (BMSC [7]): significantly increased | re-epithelialization vs vehicle control [3]: significantly improved | NF-kB protein (NF-kB in keratinocytes): increase | phosphorylation of ERK [8]: significantly increased | phosphorylation of STAT3 [9]: significantly increased | serotonin in culture lost [10]: Over 50% | keratinocyte migration (single cell migration) [11]: increases | BMSC migratory speed (BMSC [12]): significantly increased | angiogenesis (CD31+ endothelial cells) in wound beds vs vehicle [4]: increasing | macrophage (F4/80+ cells) numbers in wound beds vs vehicle [4]: increasing | neutrophils (Gr-1+ cells) in wound beds vs vehicle [4]: significantly fewer | migration of keratinocytes ([5]; primary keratinocytes from 3 donors, 6-hour time point, mitomycin-treated): enhance migration of keratinocytes in a dose-dependent manner | T cell proliferation (CFSE dilution) [6]: significantly inhibit

CC(C)(C)NC[C@H](O)COc1nsnc1N1CCOCC1 [timolol]
re-epithelialization compared to PEG vehicle control [3]: increased
